Results published in patent US11352340B2, “Pyridine and pyridimine compounds as PI3K-gamma inhibitors” (Incyte Corporation, priority 2016, dated 2022).
Counter-ions that a name gives are not always drawn. Like-named read-outs stand apart in the source and are kept apart here.

What was measured:
[1] = molecular target: PI3Kδ (p110δ/p85α) Recombinant Human Protein (Homo sapiens (Human), UniProt O00329); assay: PI3Kδ Scintillation Proximity Assay; type: biochemical; conditions: read-out: PI3K-delta SPA IC50
PI3Kδ (p110δ/p85α) Recombinant Human Protein, sequence (O00329 whole entry): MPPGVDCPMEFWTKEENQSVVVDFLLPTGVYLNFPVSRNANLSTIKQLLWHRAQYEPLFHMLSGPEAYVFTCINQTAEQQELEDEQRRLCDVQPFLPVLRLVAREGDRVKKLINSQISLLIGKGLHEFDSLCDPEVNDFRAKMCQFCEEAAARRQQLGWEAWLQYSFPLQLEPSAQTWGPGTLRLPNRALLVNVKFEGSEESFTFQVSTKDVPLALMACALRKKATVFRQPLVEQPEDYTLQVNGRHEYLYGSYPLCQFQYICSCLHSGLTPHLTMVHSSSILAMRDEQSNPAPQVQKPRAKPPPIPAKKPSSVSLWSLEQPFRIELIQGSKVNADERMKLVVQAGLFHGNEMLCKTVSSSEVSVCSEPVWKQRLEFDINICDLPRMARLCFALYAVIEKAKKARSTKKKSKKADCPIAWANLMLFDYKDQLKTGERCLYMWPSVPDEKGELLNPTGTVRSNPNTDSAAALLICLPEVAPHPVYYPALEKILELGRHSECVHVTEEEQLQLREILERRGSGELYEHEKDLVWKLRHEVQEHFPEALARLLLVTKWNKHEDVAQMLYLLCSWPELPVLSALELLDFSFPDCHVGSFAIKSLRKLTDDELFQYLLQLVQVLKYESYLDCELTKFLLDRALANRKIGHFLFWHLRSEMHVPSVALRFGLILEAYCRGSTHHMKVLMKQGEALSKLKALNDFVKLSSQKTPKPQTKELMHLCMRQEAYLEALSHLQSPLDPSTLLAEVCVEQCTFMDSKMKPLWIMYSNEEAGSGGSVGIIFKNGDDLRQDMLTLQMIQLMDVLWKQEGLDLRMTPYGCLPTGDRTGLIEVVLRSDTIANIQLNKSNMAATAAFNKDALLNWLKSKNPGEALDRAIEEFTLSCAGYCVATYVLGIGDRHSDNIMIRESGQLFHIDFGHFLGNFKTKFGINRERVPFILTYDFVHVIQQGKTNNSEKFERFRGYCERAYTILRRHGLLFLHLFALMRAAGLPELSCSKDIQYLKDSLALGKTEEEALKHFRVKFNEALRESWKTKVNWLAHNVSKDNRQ
PI3Kδ (p110δ/p85α) Recombinant Human Protein, sequence (P27986 whole entry partner): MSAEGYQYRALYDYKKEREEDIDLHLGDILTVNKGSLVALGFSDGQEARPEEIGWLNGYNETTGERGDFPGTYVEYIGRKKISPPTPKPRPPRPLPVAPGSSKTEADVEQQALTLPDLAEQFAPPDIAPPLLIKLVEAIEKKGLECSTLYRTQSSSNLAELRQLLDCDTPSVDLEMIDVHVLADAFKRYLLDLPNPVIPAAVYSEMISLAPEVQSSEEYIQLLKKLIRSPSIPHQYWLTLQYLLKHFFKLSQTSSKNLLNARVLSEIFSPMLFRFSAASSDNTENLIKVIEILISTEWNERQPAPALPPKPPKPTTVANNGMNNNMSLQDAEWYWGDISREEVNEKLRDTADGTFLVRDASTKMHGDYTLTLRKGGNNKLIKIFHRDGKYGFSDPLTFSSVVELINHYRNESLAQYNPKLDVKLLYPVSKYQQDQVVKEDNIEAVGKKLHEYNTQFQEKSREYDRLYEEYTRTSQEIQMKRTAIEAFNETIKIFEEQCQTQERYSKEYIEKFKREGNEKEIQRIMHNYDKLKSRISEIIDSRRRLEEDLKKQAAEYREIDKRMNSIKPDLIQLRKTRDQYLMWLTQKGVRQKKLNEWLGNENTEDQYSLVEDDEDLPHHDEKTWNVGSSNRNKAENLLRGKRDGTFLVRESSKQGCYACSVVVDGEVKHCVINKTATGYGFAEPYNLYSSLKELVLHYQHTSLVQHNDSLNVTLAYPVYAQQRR
Procedure, shortened: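 IC50 was fitted to percent solvent-control activity from SPA scintillation counts after WGA bead capture of 33P-labelled lipid product. Reaction: 120 min, room temperature, 3.4 nM p110δ/p85α, 20 μM PIP2, 2 μM ATP with tracer, MOPS pH 6.7 buffer containing MgCl2, DTT, CHAPS, 2% DMSO.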

[2] = molecular target: PI3Kγ (p110γ) Recombinant Human Protein (Homo sapiens (Human), UniProt P48736); assay: PI3K-γ Scintillation Proximity Assay; type: biochemical; conditions: read-out: PI3K-gamma SPA IC50
PI3Kγ (p110γ) Recombinant Human Protein, sequence (P48736 whole entry): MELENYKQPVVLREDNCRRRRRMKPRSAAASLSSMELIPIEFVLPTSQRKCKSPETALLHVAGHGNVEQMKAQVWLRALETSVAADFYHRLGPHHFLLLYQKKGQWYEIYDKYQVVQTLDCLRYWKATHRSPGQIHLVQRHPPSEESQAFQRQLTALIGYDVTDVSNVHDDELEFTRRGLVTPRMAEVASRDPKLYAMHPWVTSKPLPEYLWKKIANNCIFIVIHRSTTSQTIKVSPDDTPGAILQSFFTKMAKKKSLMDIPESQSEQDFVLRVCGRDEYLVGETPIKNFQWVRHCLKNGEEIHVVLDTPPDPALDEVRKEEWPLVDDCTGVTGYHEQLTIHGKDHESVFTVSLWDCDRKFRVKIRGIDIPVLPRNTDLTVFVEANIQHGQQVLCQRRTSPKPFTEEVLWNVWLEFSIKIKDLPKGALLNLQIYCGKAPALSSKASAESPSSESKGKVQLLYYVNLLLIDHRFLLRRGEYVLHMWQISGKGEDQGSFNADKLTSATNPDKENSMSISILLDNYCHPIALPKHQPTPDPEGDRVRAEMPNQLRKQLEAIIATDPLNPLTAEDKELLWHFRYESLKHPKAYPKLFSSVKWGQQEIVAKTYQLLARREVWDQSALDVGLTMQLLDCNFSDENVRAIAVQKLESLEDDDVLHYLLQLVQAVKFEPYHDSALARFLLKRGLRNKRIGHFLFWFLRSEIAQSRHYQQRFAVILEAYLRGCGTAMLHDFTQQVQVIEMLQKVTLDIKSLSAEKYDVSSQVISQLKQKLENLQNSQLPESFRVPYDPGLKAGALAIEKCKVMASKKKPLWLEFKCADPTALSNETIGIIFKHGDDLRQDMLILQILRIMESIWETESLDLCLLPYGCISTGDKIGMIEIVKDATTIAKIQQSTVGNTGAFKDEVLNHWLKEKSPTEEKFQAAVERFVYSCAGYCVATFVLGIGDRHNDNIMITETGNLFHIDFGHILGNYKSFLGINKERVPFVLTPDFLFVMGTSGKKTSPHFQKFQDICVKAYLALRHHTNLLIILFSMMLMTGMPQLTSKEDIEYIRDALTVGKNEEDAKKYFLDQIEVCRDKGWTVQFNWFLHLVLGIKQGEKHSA
Procedure, shortened: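 Radiometric SPA: reaction at room temperature for 120 min using 2 μM ATP with [γ-33P]ATP tracer, 20 μM PIP2 substrate and 13 nM human PI3Kγ (MOPS pH 6.7, MgCl2, DTT, CHAPS; 2% DMSO). EDTA quench with WGA beads, scintillation count, and IC50 fit of percent-of-control activity.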

[3] = system: Phosphorylated Ribosomal Protein S6 (RPS6) in THP-1 cells; assay: THP-1 RPS6 ELISA Assay; type: cell-based, Human; conditions: MCP-1 stimulated, phospho-RPS6 ELISA, read-out: THP p-RPS6 ELISA IC50
Procedure: Example A. THP-1 RPS6 ELISA Assay
To measure the Phosphorylated Ribosomal Protein S6 (RPS6) in cell lysates, THP-1 cells (Human Acute Monocytic Leukemia) are purchased from ATCC (Manassas, Va.) and maintained in RPMI with 10% FBS (Gibco/Life Technologies, Carlsbad, Calif.). For the assay, THP-1 cells are serum starved overnight in RPMI, then plated in RPMI (2×10^5 cells/well in 90 μL) into 96-well flat-bottom tissue culture treated plates (Corning, Corning, N.Y.), in the presence or absence of a concentration range of test compounds. Covered plates are incubated for 2 hours at 37° C., 5% CO2 then treated with or without 10 nM MCP-1 (MYBioSource, San Diego, Calif.) for 15 minutes at 37° C., 5% CO2. Plates are centrifuged at 1600 RPM and supernatants are removed. Cells are lysed in Lysis Buffer (Cell Signaling, Danvers, Mass.) with Protease Inhibitor (Calbiochem/EMD, Germany), PMSF (Sigma, St Louis Mo.), HALTS (Thermo Fisher, Rockford, Ill.) for 30 min on wet ice. Cell lysates are frozen at −80° C. before testing. The lysates are tested in the Human/Mouse/Rat Phospho-RPS6 ELISA (R&D Systems, Inc. Minn, Minn.). The plate is measured using a microplate reader (SpectraMax M5—Molecular Devices, LLC Sunnyvale, Calif.) set to 450 nm with a wavelength correction of 540. IC50 determination is performed by fitting the curve of inhibitor percent inhibition versus the log of the inhibitor concentration using the GraphPad Prism 5.0 software.

`CC(=O)Nc1cncc(-c2ccnc(-c3ncc(-c4ccccc4)[nH]3)c2)c1` [Example 17, N-(2′-(5-Phenyl-1H-imidazol-2-yl)-3,4′-bipyridin-5-yl)acetamide trifluoroacetate salt] was tested, and the IC50 [1] was no more than 50 nM, the IC50 [2] was no more than 50 nM and the IC50 ([3]; Homo sapiens) was 300 to 1000 nM.

For `Cc1[nH]c(-c2cc(-c3cncc(S(C)(=O)=O)c3)ccn2)nc1C(=O)N1CC(C#N)C1` [Example 248, 1-({5-Methyl-2-[5-(methylsulfonyl)-3,4′-bipyridin-2′-yl]-lH-imidazol-4-yl}carbonyl)azetidine-3-carbonitrile], the IC50 [1] was no more than 50 nM, the IC50 [2] was no more than 50 nM and the IC50 [3] was 1000 to 5000 nM.

`Clc1ccc(Cn2cc(-c3ccnc(-c4ncc(-c5ccccc5)[nH]4)c3)cn2)cc1` [Example 1, 4-[1-(4-Chlorobenzyl)-1H-pyrazol-4-yl]-2-(5-phenyl-1H-imidazol-2-yl)pyridine Trifluoroacetate Salt] gave an IC50 [1] greater than 500 nM, an IC50 [2] of no more than 50 nM and an IC50 ([3]; Homo sapiens) greater than 5000 nM.

With `Cc1[nH]c(-c2cc(-c3cncc(S(C)(=O)=O)c3)ccn2)nc1C(=O)NC1CCOCC1` [Example 254, 5-Methyl-2-[5-(methylsulfonyl)-3,4′-bipyridin-2′-yl]-N-(tetrahydro-2H-pyran-4-yl)-1H-imidazole-4-carboxamide trifluoroacetate salt] the IC50 [1] was no more than 50 nM, the IC50 [2] was no more than 50 nM and the IC50 ([3]; Homo sapiens) was no more than 300 nM.

`Cc1nc(-c2cc(-c3cncc(C(=O)N4CCC(=O)C4)c3)ccn2)[nH]c1C` [Example 168, 1-(2′-(4,5-Dimethyl-1H-imidazol-2-yl)-3,4′-bipyridine-5-carbonyl)pyrrolidin-3-one trifluoroacetate salt] was tested, and the IC50 [1] was no more than 50 nM, the IC50 [2] was no more than 50 nM and the IC50 ([3]; Homo sapiens) was no more than 300 nM.

Compound `Cc1nc(-c2cc(C3=CCN(Cc4ccc(Cl)cc4)C3)ccn2)[nH]c1C` [Example 229, 4-(1-(4-Chlorobenzyl)-2,5-dihydro-1H-pyrrol-3-yl)-2-(4,5-dimethyl-1H-imidazol-2-yl)pyridine trifluoroacetate salt] has an IC50 [1] greater than 500 nM and an IC50 [2] greater than 500 nM.

`COc1cncc(-c2ccnc(-c3nnc[nH]3)c2)c1` [Example 72, 5-Methoxy-2′-(4H-1,2,4-triazol-3-yl)-3,4′-bipyridine] was tested, and the IC50 [1] was greater than 500 nM and the IC50 [2] was greater than 500 nM.

For `O=C(CCn1cc(-c2ccnc(-c3ncc(-c4ccccc4)[nH]3)c2)cn1)NC1CCCC1` [Example 59, N-cyclopentyl-3-(4-(2-(5-phenyl-1H-imidazol-2-yl)pyridin-4-yl)-1H-pyrazol-1-yl)propanamide trifluoroacetate salt], the IC50 [1] was greater than 500 nM and the IC50 [2] was greater than 500 nM.

In the case of `Cc1[nH]c(-c2cc(-c3cncc(N4CCOCC4)c3)ccn2)nc1CNC(C)C` [Example 285, N-{[5-Methyl-2-(5-morpholin-4-yl-3,4′-bipyridin-2′-yl)-1H-imidazol-4-yl]methyl}propan-2-amine], the IC50 [1] is reported as no more than 500 nM and the IC50 [2] is reported as greater than 500 nM.

For `Cc1nc(-c2cc(C3CCCN(S(=O)(=O)c4ccccc4)C3)ccn2)[nH]c1C` (racemic) [Example 215, 2-(4,5-Dimethyl-1H-imidazol-2-yl)-4-[1-(phenylsulfonyl)piperidin-3-yl]pyridine Trifluoroacetate Salt], the IC50 [1] was greater than 500 nM and the IC50 [2] was no more than 500 nM.

Compound `COCCNC(=O)c1cncc(-c2ccnc(-c3nc(C)c(C)[nH]3)c2)c1` [Example 166, 2′-(4,5-Dimethyl-1H-imidazol-2-yl)-N-(2-methoxyethyl)-3,4′-bipyridine-5-carboxamide trifluoroacetate salt] has an IC50 [1] of no more than 50 nM and an IC50 [2] of no more than 100 nM.

With `CNCc1nc(-c2cc(-c3cncc(N4CCOCC4)c3)ccn2)[nH]c1C` [Example 288, N-Methyl-1-[5-methyl-2-(5-morpholin-4-yl-3,4′-bipyridin-2′-yl)-1H-imidazol-4-yl]methanamine] the IC50 [1] was no more than 500 nM and the IC50 [2] was greater than 500 nM.

In the case of `c1ccc(-c2cnc(-c3cc(-c4cnn(C5CCOC5)c4)ccn3)[nH]2)cc1` (racemic) [Example 60, 2-(5-Phenyl-1H-imidazol-2-yl)-4-(1-(tetrahydrofuran-3-yl)-1H-pyrazol-4-yl)pyridine trifluoroacetate salt], the IC50 [1] is reported as no more than 500 nM and the IC50 [2] is reported as no more than 500 nM.

In the case of `COC(=O)c1ccccc1Cn1cc(-c2ccnc(-c3ncc(-c4ccccc4)[nH]3)c2)cn1` [Example 30, Methyl 2-((4-(2-(5-phenyl-1H-imidazol-2-yl)pyridin-4-yl)-1H-pyrazol-1-yl)methyl)benzoate trifluoroacetate salt], the IC50 [1] is reported as greater than 500 nM and the IC50 [2] is reported as greater than 500 nM.

For `CCOC(=O)Nc1cncc(-c2ccnc(-c3ncc(-c4ccccc4)[nH]3)c2)c1` [Example 140, Ethyl 2′-(5-phenyl-1H-imidazol-2-yl)-3,4′-bipyridin-5-ylcarbamate Trifluoroacetate Salt], the IC50 [1] was no more than 50 nM and the IC50 [2] was no more than 100 nM.

With `COc1cncc(-c2ccnc(-c3cnc(NCC(C)C)[nH]3)c2)c1` [Example 64, N-Isobutyl-5-(5-methoxy-3,4′-bipyridin-2′-yl)-1H-imidazol-2-amine trifluoroacetate salt] the IC50 [1] was greater than 500 nM and the IC50 [2] was no more than 500 nM.

`Cc1nc(-c2cc(-c3cncc(C(=O)N4CCCN(C)CC4)c3)ccn2)[nH]c1C` [Example 200, 2′-(4,5-Dimethyl-1H-imidazol-2-yl)-5-[(4-methyl-1,4-diazepan-1-yl)carbonyl]-3,4′-bipyridine] was tested, and the IC50 [1] was no more than 500 nM and the IC50 [2] was no more than 500 nM.

For “4-(1-Methyl-3-(trifluoromethyl)-1H-pyrazol-5-yl)-2-(5-phenyl-1H-imidazol-2-yl)pyridine trifluoroacetate salt [Example 13]”, the IC50 [1] was greater than 500 nM and the IC50 [2] was greater than 500 nM.

Compound `O=C(O)c1cccc(Cn2cc(-c3ccnc(-c4ncc(-c5ccccc5)[nH]4)c3)cn2)c1` [Example 34, 3-((4-(2-(5-Phenyl-1H-imidazol-2-yl)pyridin-4-yl)-1H-pyrazol-1-yl)methyl)benzoic acid trifluoroacetate salt] has an IC50 [1] of no more than 500 nM and an IC50 [2] of no more than 500 nM.

With `Cc1nc(-c2cc(-c3cncc(C4=CCNC4)c3)ccn2)[nH]c1C` [Example 236, 5-(2,5-Dihydro-1H-pyrrol-3-yl)-2′-(4,5-dimethyl-1H-imidazol-2-yl)-3,4′-bipyridine] the IC50 [1] was greater than 500 nM and the IC50 [2] was greater than 500 nM.

Work on `CC(=O)N1CCC(c2c[nH]c(-c3cc(-c4cnn(Cc5ccc(Cl)cc5)c4)ccn3)n2)C1` (stereo not drawn) [Example 301, 2-[4-(1-Acetylpyrrolidin-3-yl)-1H-imidazol-2-yl]-4-[1-(4-chlorobenzyl)-1H-pyrazol-4-yl]pyridine trifluoroacetate salt] yielded an IC50 [1] greater than 500 nM and an IC50 [2] of no more than 500 nM.

With `CC(=O)N1CC=C(c2cncc(-c3ccnc(-c4nc(C)c(C)[nH]4)c3)c2)C1` [Example 238, 1-(3-(2′-(4,5-Dimethyl-1H-imidazol-2-yl)-3,4′-bipyridin-5-yl)-2,5-dihydro-1H-pyrrol-1-yl)ethanone] the IC50 [1] was no more than 500 nM and the IC50 [2] was greater than 500 nM.

With `CC(=O)N1CC=C(c2ccnc(-c3nc(C)c(C)[nH]3)c2)CC1` [Example 217, 1(4-(2-(4,5-Dimethyl-1H-imidazol-2-yl)pyridin-4-yl)-5,6-dihydropyridin-1(2H)-yl)ethanone trifluoroacetate salt] the IC50 [1] was greater than 500 nM and the IC50 [2] was greater than 500 nM.

Compound `Cc1[nH]c(-c2cc(-c3cncc(N4CCOCC4)c3)ccn2)nc1CN[C@@H]1CCOC1` [Example 287, (3R)-N-{[5-Methyl-2-(5-morpholin-4-yl-3,4′-bipyridin-2′-yl)-1H-imidazol-4-yl]methyl}tetrahydrofuran-3-amine] has an IC50 [1] of no more than 500 nM and an IC50 [2] greater than 500 nM.

For `Cc1nc(-c2cc(-c3cncc(NCC4CCOCC4)c3)ccn2)[nH]c1C` [Example 145, 2′-(4,5-Dimethyl-1H-imidazol-2-yl)-N-(tetrahydro-2H-pyran-4-ylmethyl)-3,4′-bipyridin-5-amine], the IC50 [1] was no more than 500 nM and the IC50 [2] was no more than 50 nM.

Compound `CCCn1cc(-c2ccnc(-c3ncc(-c4ccccc4)[nH]3)c2)cn1` [Example 12, 2-(5-Phenyl-1H-imidazol-2-yl)-4-(1-propyl-1H-pyrazol-4-yl)pyridine trifluoroacetate salt] has an IC50 [1] of no more than 500 nM and an IC50 [2] of no more than 500 nM.
